Publication PMC8238520, “Co-ordinated control of the Aurora B abscission checkpoint by PKCε complex assembly, midbody recruitment and retention” (Biochemical Journal, 2021)

What was measured:
Assay type in all cases: cell-based
[1] = tested on: GFP-PKCε (WT) in HEK293T cells; assay: Midbody recruitment of GFP-PKCε (WT), immunofluorescence; conditions: cells undergoing cytokinesis, twenty cells with midbodies per condition across three experiments
Experimental: (§1) Cells were grown on 13 mm glass coverslips and simultaneously fixed and permeabilized with PHEM-TX buffer (60 mM PIPES (pH 6.8), 25 mM HEPES (pH7.4), 10 mM EGTA (pH 8), 4 mM MgSO4, 4% paraformaldehyde and 0.1% Triton X-100) for 20 min. Cells were then incubated in blocking buffer (3% BSA in PBS) and probed using the following primary antibodies: rabbit Aurora B pS227 (in house, 1 : 100), mouse α-tubulin (in house, 1 : 1000). Primary antibodies were detected using Alexa Fluor-conjugated secondary antibodies (Life Technologies) and were all used diluted in blocking buffer: donkey anti-rabbit Alexa Fluor 647 and goat anti-mouse Alexa Fluor 555. […]
(§2) Figure 2. […] (B) Quantitation of dividing cells with GFP-PKCε and GFP-PKCε-D532N accumulation at the midbody. […] (D) Quantitation of dividing cells with GFP-PKCε, GFP-PKCε-S346A-S368A, GFP-PKCε-D532N or GFP-PKCε-D532N-S346A-S368A accumulation at the midbody. […] (F) Quantitation of dividing cells with GFP-PKCε-D532N, GFP-PKCε-D532N-C183A, GFP-PKCε-D532N-C259A or GFP-PKCε-D532N-ΔC2 accumulation at the midbody. […] (G) Quantitation of multinucleate cells upon treatment with non-targeting siRNA (control) or PKCε siRNA, with expression of siRNA-resistant mouse GFP-PKCε, GFP-PKCε-D532N, GFP-PKCε-C183A, GFP-PKCε-C259A or GFP-PKCε-ΔC2. […] Two-hundred cells were counted per condition per experiment. […]

[2] = tested on: GFP-PKCε-C183A in HEK293T cells; assay: Midbody recruitment of GFP-PKCε-C183A (C1A mutant), immunofluorescence; conditions: twenty cells with midbodies per condition across three experiments
Experimental: as §1, §2

[3] = tested on: GFP-PKCε-C259A in HEK293T cells; assay: Midbody recruitment of GFP-PKCε-C259A (C1B mutant), immunofluorescence; conditions: twenty cells with midbodies per condition across three experiments
Experimental: as §1, §2

[4] = tested on: GFP-PKCε-ΔC2 in HEK293T cells; assay: Midbody recruitment of GFP-PKCε-ΔC2, immunofluorescence
Experimental: as §1, with “555. All coverslips were mounted using ProLong Gold Diamond with DAPI (Invitrogen). All the static images were acquired using an inverted laser scanning confocal microscope (Carl Zeiss LSM 780) equipped with a 40× Plan-APOCHROMAT DIC oil-immersion objective. Image analysis was carried out using the ZEN analysis software. The variation in expression precluded midbody/cytoplasmic ratio determination as a valid approach to scoring localisation.” for “555.”
(§3) I = I0 –I 1e-t/T1 –I 2e-t/T2 (see Methods), for GFP-PKC e M486A expressing HEK293T cells pretreated with NaPP1. Cells were bleached atthe plasma membrane (PM) or midbody(MB)and fluorescence recovery was monitored. […]

[5] = tested on: GFP-PKCε-L223A-K224A-E227A in HEK293T cells; assay: Midbody recruitment of GFP-PKCε-L223A-K224A-E227A (LKE > 3A), immunofluorescence; conditions: twenty cells with midbodies per condition across three experiments
Experimental: as §1, with “555. All coverslips were mounted using ProLong Gold Diamond with DAPI (Invitrogen). All the static images were acquired using an inverted laser scanning confocal microscope (Carl Zeiss LSM 780) equipped with a 40× Plan-APOCHROMAT DIC oil-immersion objective. Image analysis was carried out using the ZEN analysis software. The variation in expression precluded midbody/cytoplasmic ratio determination as a valid approach to scoring localisation.” for “555.”
Figure 3. […] (C) Quantitation of dividing cells with GFP-PKCε, GFP-PKCε-D532N, GFP-PKCε-D532N-L223A-K224A-E227A, GFP-PKCε-D532N-T228A or GFP-PKCε-D532N-S234A accumulation at the midbody. […]

[6] = tested on: GFP-PKCε M486A in HEK293T cells; assay: Fluorescence recovery after photobleaching (FRAP); conditions: NaPP1 (4 μM) for 10 min; 37°C
Experimental: Live-cell fluorescence recovery after photobleaching (FRAP) experiments were performed using an inverted laser scanning confocal microscope (LSM 510, Carl Zeiss MicroImaging GmbH, Jena, Germany), with fully open pinhole, using a Plan-Apochromat oil-immersion objective (×63, NA 1.4). The microscope was encased inside an environmental polymethylmethacrylate case maintained at a constant temperature of 37°C, while the dishes containing the cells were maintained under a constant 5% CO2 flow. GFP-PKCε M486A cells were incubated with NaPP1 (4 μM) for 10 min. Each FRAP experiment comprised a sequence of 300 frames (128 × 128, pixel dwell time of 6.40 μs, pixel size 0.37 μm) including 10 pre-bleached frames. […] Recovery was monitored by capturing a further 290 scans after the photobleach event. Quantification was performed using the FRAP module included in the LSM software (Carl Zeiss) plotting the graphs to a best fit double exponential model I = I0 − I1e^−t/T^1 − I2e^−t/T^2 where I0 is the intensity before bleach, I1 and I2 are the mobile fractions and T1 and T2 the time constants. […]
as §3

CCCCCCCCCC(=O)OC[C@H](CO)OC(=O)CCCCCCCCC [DiC10, sn-1,2-didecanoylglycerol]
midbody recruitment of WT PKCε on diC10 ([1]; 10 µM diC10, 3 min): recruited to the midbody region
cells displaying recruitment of C1A mutant to midbody on diC10 ([2]; 10 µM diC10, 3 min): 0%
cells displaying recruitment of C1B mutant to midbody on diC10 ([3]; 10 µM diC10, 3 min): 0%
midbody recruitment of PKCεΔC2 on diC10 ([4]; DiC10, data not shown): recruited
midbody recruitment of LKE > 3A mutant on diC10 ([5]; 10 µM diC10, 3 min): recruited to the midbody

CC(C)(C)n1nc(-c2cccc3ccccc23)c2c(N)ncnc21 [NaPP1]
fast component of FRAP recovery at the midbody compared with the plasma membrane recruited protein [6]: considerably slower

CCCCCCCCCCCCCC(=O)O[C@@H]1[C@@H](C)[C@@]2(O)[C@@H](C=C(CO)C[C@]3(O)C(=O)C(C)=C[C@@H]23)[C@@H]2C(C)(C)[C@]12OC(C)=O [PMA, phorbol myristate acetate]
midbody recruitment of WT PKCε on PMA ([1]; 1 µM PMA, 20 min): recruited to the midbody region
midbody accumulation of C1A mutant (C183A) on PMA ([2]; 1 µM PMA, 20 min): still promoted midbody accumulation
midbody recruitment of C1B mutant (C259A) on PMA ([3]; 1 µM PMA, 20 min): not recruited
midbody recruitment of PKCεΔC2 on PMA ([4]; PMA for 20 minutes, 20 cells per condition across 3 experiments): recruited
midbody recruitment of LKE > 3A mutant on PMA ([5]; 1 µM PMA, 20 min): recruited to the midbody
